{
  "source": "patent US20090259167A1",
  "about": "“METHODS AND COMPOSITIONS FOR DOSE-DEPENDENT PHOTODYNAMIC THERAPY OF DISORDERS” (THE GENERAL HOSPITAL CORPORATION, priority 2008, published 2009)",
  "key": {"[1]": {"tested_on": "porphyrin accumulation in skin", "experiment": "Digital fluorescence gross photography of porphyrin accumulation after intradermal ALA", "format": "in vivo, Yorkshire swine", "from_the_text": "(§1) Three female domestic Yorkshire swine weighing 30 to 50 kg were used in the study, which was approved by the MGH Institutional Subcommittee for Research Animal Care. Porcine and human skin have similar histology and physiology, with notable differences. Pigs have smaller sebaceous glands and a thicker dermis. However their thick stratum corneum, lack of fur and metabolism of topical or injected ALA are similar to humans (Meyer 1996), (de Blois, Thissen et al. 2001).\n(§2) 5-Aminolevulinic acid hydrochloride from Biosynth International Inc. (Naperville, Ill., USA) was diluted in normal saline (0.9% Sodium Chloride, Hospira, Inc., Illinois, USA) into different concentrations. ALA solutions were titrated in halves from 1.000% to 0.0005%. Osmolarity was not corrected. ALA solution pH varied with concentration from acidic to neutral (1.000%≈pH 1; 0.500%≈pH 3; 0.250 to 0.008%≈pH 5; 0.004 to 0.0005%≈pH 7). Normal saline was used as a control (pH=7). […] In this study, ALA solutions were not buffered because buffering can induce a delay in PpIX formation (Bech et al. 1997). Unbuffered solutions were prepared immediately before intradermal injection. A volume of 0.05-cc/cm^2 skin area was injected at a depth of 2 to 4 mm, using a special 4 mm-long 30 gauge needle (TSK STEiJECT, Toshigi-ken, Japan). The beveled outlet of this needle covers the distal 1 mm near its tip.\nFor each concentration, 12 repetitions were performed for statistical validation. One centimeter separated each site of application from others at the same concentration. After ALA administration, the skin was occluded with plastic sheeting (Saran wrap) and covered with aluminum foil, to avoid light exposure during a 3-hour period for ALA metabolism.\n(§3) Each animal's flanks were cleansed, clipped of hair, cleansed and rinsed again, dried with a towel, mapped and divided into 4 cm×7 cm rectangular areas for the test spots. Each test area received an injection of a given ALA concentration, with appropriate control sites, which received either no treatments, ALA alone, or light exposure alone. After the ALA injections, the skin surface was wiped clean again. Three hours after ALA administration, each test area was used for repeated measurements of (1) digital fluorescence photography to document the gross distribution of porphyrin synthesis; and (2) 8-mm skin biopsies obtained from at least 2 sites for each condition prior to light exposure, for evaluation of porphyrin distribution by fluorescence microscopy. After the 3-hour-incubation skin biopsies, red light exposures were performed using a 635 nm LED array (Omnilux, Photo Therapeutics, Inc, Cheshire, UK), delivered at 100 mW/cm^2 irradiance. Biopsies were taken from the control sites at the same times as from test sites, to control for the unlikely possibility that the small amount of ALA injected would cause a systemic level sufficient to stimulate remote synthesis of porphyrins. Measurements and biopsies were repeated after 24 hours, prior to euthanasia.\nFluorescence photography was performed using a 420 nm bandwidth excitation filter, and >600 nm long pass emission filter mounted on a digital camera (Nikon D70, Nikon Corporation, Tokyo, Japan) with fixed-focus and fixed-field with 10 cm field of view. A fluorescent tape (Small Flags—Pink, Redi-Tag Corporation, Cypress, Calif., USA) was attached to the fixed-field area to compare the fluorescence produced from the skin. Fluorescence photography was performed at baseline, after 3 hours of incubation, immediately after red light exposure, and 24 hours after the application of the drug for each ALA application and control test sites.\nEvery gross fluorescent photograph was analyzed using the WCIF—Image J 1.37c software—Wayne Rasband National Institutes of Health, USA. In this software, pixel analysis is transformed into numeric values. […]"}, "[2]": {"tested_on": "porphyrin accumulation in cutaneous structures", "experiment": "Fluorescence microscopy of fresh-frozen skin biopsies for porphyrin (PpIX) distribution", "format": "in vivo, Yorkshire swine", "from_the_text": "as §1, §2, §3\n(§4) From each experimental skin area, a series 8 mm punch biopsies were taken and immediately split vertically in half with a razor blade. For each biopsy, half was prepared as a fresh-frozen specimen to localize the PpIX accumulation by fluorescence microscopy. The other half was processed for routine hematoxylin-eosin (H&E) staining. At baseline (B0), after 3 hours of incubation (B1), and after 24 hours (B2) a biopsy was performed in each area. Biopsies for fluorescence microscopy were also taken from sites receiving light exposure, just after the light was administered. Frozen sections were cut into 15 μm thick samples and observed using fluorescence microscopy Zeiss Axiophot, Carls Zeiss MicroImaging GmbH, Gottinger, Germany at 10× magnification; samples were also imaged by confocal microscopy (True Confocal Scanner—Leica TCSNT, Leica Mikroscopie und Systeme GmbH, Heidelberg, Germany) at 40× magnification. Routine H&E histology was performed to analyze PDT effect within the skin structures. Biopsy sites were separated from each other by at least 1 cm. […]"}, "skin": {"tested_on": "skin", "experiment": "Clinical examination of inflammatory response to ALA-PDT (635 nm red light)", "format": "in vivo, Yorkshire swine", "from_the_text": "as §1, §2, §3\nClinical examination and grading of cutaneous responses were performed before, during and 1 hour after the end of the last red light exposure. This is sufficient time for an acute inflammatory response to develop. The following day, before euthanasia, final clinical evaluation was performed. Inflammatory response was graded from 0 to 3 for each site, where 0 represents no reaction; 1, mild (any redness or edema); 2, moderate (prominent redness and/or edema) and 3, severe reaction (signs of necrosis, blistering, purpura)."}, "skin structures": {"tested_on": "skin structures", "experiment": "Histopathology (H&E) of skin structures 24 hours after ALA-PDT", "format": "in vivo, Yorkshire swine", "from_the_text": "as §1, §2, §3, §4"}, "[3]": {"experiment": "pH and stability of ALA solutions", "format": "physicochemical", "details": "unbuffered", "procedure": "as §2"}, "[4]": {"details": "depending on the pH and the concentration of the solution; cited from earlier work"}, "[5]": {"details": "0.5% injected ALA-PDT, 24 hours"}},
  "note": "Entries after “also recorded” stand apart in the source; their conditions may differ.",
  "data": [
    {"smiles": "Cl.NCC(=O)CCC(=O)O", "note": "[ALA, 5-Aminolevulinic acid hydrochloride]", "values": [
      {"measurement": "porphyrin accumulation by gross fluorescence", "setting": "[1]; 2-4 mm deep injected ALA lower than 0.0005%", "result": "low but detectable level of porphyrin accumulation"},
      {"measurement": "lowest injected ALA concentration with positive fluorescence in photographs", "setting": "[1]; 3 hours after intradermal administration, solutions 1.0% to 0.0005%", "result": 0.004, "unit": "%"},
      {"measurement": "lowest injected ALA concentration with statistically significantly increased fluorescence vs uninjected control sites (pixel value analysis)", "setting": "[1]; 3 hours incubation", "result": 0.004, "unit": "%"},
      {"measurement": "fluorescence compared to control and light only sites", "setting": "[1]; ALA less than or equal to 0.002%, p≦2×10^−5", "result": "significant fluorescence"},
      {"measurement": "fluorescence immediately after red light PDT", "setting": "[1]; all sites, 635 nm", "result": "no fluorescence"},
      {"measurement": "porphyrin accumulation by gross fluorescence", "setting": "[1]; injected ALA greater than 0.002%", "result": "dose-dependent porphyrin accumulation"},
      {"measurement": "lowest injected ALA concentration inducing porphyrin accumulation", "setting": "[2]; down to and including", "result": 0.0005, "unit": "%"},
      {"measurement": "injected ALA concentration at which epithelial skin structures (hair follicles, sebaceous glands, epidermis) showed fluorescence", "setting": "[2]; in vivo", "result": "≥ 0.25", "unit": "%"},
      {"measurement": "subcutaneous fat fluorescence", "setting": "[2]; injected ALA 0.0005%", "result": "present"},
      {"measurement": "vessel fluorescence", "setting": "[2]; injected ALA 0.50%", "result": "Some vessels also fluoresced"},
      {"measurement": "epidermal fluorescence", "setting": "[2]; injected ALA 1.0% and 0.5%, prior to light", "result": "Full thickness epidermal fluorescence"},
      {"measurement": "fluorescence of superficial and deep hair follicles", "setting": "[2]; injected ALA 1% to 0.03%", "result": "mostly present"},
      {"measurement": "epidermal fluorescence", "setting": "[2]; injected ALA below 0.06%", "result": "negative"},
      {"measurement": "stratum corneum fluorescence", "setting": "[2]; injected ALA below 0.06%", "result": "positive fluorescence"},
      {"measurement": "localisation of porphyrin fluorescence", "setting": "[2]; injected ALA ≦0.002%, 2-4 mm deep", "result": "limited to the area where the drug was injected"},
      {"measurement": "eccrine gland porphyrin fluorescence", "setting": "[2]; injected ALA ≧0.03%", "result": "strong porphyrin fluorescence"},
      {"measurement": "superficial fat fluorescence", "setting": "[2]; injected ALA, all concentrations tested, fading with dilution", "result": "strong fluorescence"},
      {"measurement": "lowest ALA concentration with sebaceous gland fluorescence", "setting": "[2]; injected, prior to light", "result": 0.50, "unit": "%"},
      {"measurement": "lowest ALA concentration with positive eccrine gland fluorescence", "setting": "[2]; injected, less intense but still positive", "result": 0.005, "unit": "%"},
      {"measurement": "lowest injected ALA concentration with clinical reaction (mild erythema)", "setting": "skin; 24 hours after PDT", "result": 0.016, "unit": "%"},
      {"measurement": "Nikolski sign", "setting": "skin; all sites", "result": "negative"},
      {"measurement": "clinical response after light exposure", "setting": "skin; injected ALA 0.0005% (lowest concentration)", "result": "no significant clinical residuum"},
      {"measurement": "clinical response after PDT", "setting": "skin; injected ALA 0.25%-1.00%, necrosis generally after 24 hours", "result": "extensive purpura with skin necrosis"},
      {"measurement": "gross skin reaction", "setting": "skin; injected ALA and light exposure, after 24 hours", "result": "much more uniform gross skin reaction"},
      {"measurement": "clinical response during red light irradiation", "setting": "skin; injected ALA from 0.016% to 1.0%", "result": "intense vasospasm"},
      {"measurement": "clinical response after light exposure", "setting": "skin; injected ALA less or equal to 0.016%, light 3 hours after injection", "result": "only erythematous macules near each injection puncture site"},
      {"measurement": "reaction to ALA injection before light exposure", "setting": "skin; intradermal injection, 3-hour incubation", "result": "mild transient “bleb” papule"},
      {"measurement": "skin response", "setting": "skin; topical 20% ALA and light exposure, after 24 hours", "result": "non-uniform skin response, with much greater inflammation around hair follicles"},
      {"measurement": "fat septae damage", "setting": "skin structures; 0.002% injected ALA-PDT", "result": "Massive fat septae necrosis"},
      {"measurement": "damage to hair follicle, adnexal glands and fat", "setting": "skin structures; 0.5% injected ALA-PDT", "result": "Non-selective destruction"},
      {"measurement": "epidermis changes", "setting": "skin structures; [5]", "result": "no relevant changes"},
      {"measurement": "superficial vessel findings", "setting": "skin structures; [5]", "result": "superficial vessel inflammation with blood stagnation"},
      {"measurement": "eccrine gland damage", "setting": "skin structures; all ALA concentrations, more so 1% to 0.06%", "result": "Massive eccrine gland necrosis"},
      {"measurement": "fat damage", "setting": "skin structures; all injected ALA concentrations", "result": "observed with all concentrations"},
      {"measurement": "epidermis reaction", "setting": "skin structures; all samples, 24 hours after PDT", "result": "little or no reaction"},
      {"measurement": "vascular destruction in deep vessels of the fat septae", "setting": "skin structures; injected ALA 0.0005% (most diluted)", "result": "maximal vascular destruction"},
      {"measurement": "fat damage intensity", "setting": "skin structures; injected ALA 0.0005-0.016%", "result": "more intense"},
      {"measurement": "fat effect at very low concentrations", "setting": "skin structures; injected ALA 0.016 to 0.0005% (≦0.016%), 2-4 mm deep, hydrochloride", "result": "localized fat necrosis without clinical evidence of inflammation; also recorded: targeted fat and deep vessels without clinical inflammation"},
      {"measurement": "superficial fat inflammation", "setting": "skin structures; injected ALA 0.06%", "result": "mild inflammation"},
      {"measurement": "eccrine gland selectivity of damage", "setting": "skin structures; injected ALA 0.06%, hydrochloride", "result": "selective destruction of some eccrine glands; also recorded: Selective eccrine gland damage; also recorded: selectively targeted eccrine glands; also recorded: Selective reaction of eccrine glands"},
      {"measurement": "vascular findings in superficial and deep vessels", "setting": "skin structures; injected ALA 0.25-1.00%, 24 hours after PDT", "result": "extensive perivascular and vascular mixed inflammatory cell infiltrates"},
      {"measurement": "vascular PDT reaction", "setting": "skin structures; injected ALA ≧0.25% with high fluence red light", "result": "potent vascular PDT reaction"},
      {"measurement": "apocrine gland damage", "setting": "skin structures; injected ALA-PDT", "result": "signs of some preferential damage"},
      {"measurement": "perifollicular inflammation", "setting": "skin structures; mainly injected ALA 1%-0.016%", "result": "mild perifollicular inflammation"},
      {"measurement": "ALA solution pH", "setting": "[3]; 0.004 to 0.0005% ALA in normal saline", "result": "~7"},
      {"measurement": "ALA solution pH", "setting": "[3]; 0.250 to 0.008% ALA in normal saline", "result": "~5"},
      {"measurement": "ALA solution pH", "setting": "[3]; 0.500% ALA in normal saline", "result": "~3"},
      {"measurement": "ALA solution pH", "setting": "[3]; 1.000% ALA in normal saline", "result": "~1"},
      {"measurement": "stability of aqueous solutions", "setting": "[4]", "result": "unstable over long periods"}
    ]}
  ]
}
